Data as given in patent publication US20240024273A1, “TOPICAL ADMINISTRATION OF 2-(DIETHYLAMINO)ETHYL 2-(4-ISOBUTYLPHENYL)PROPRIONATE FOR TREATMENT OF DISEASES” (TECHFIELDS PHARMA CO., LTD., priority 2020, published 2024).

Test system: Subjects with Osteoarthritis of the Knee
Assay: Second Phase 2 study: safety (treatment-emergent adverse events)
Assay type: in vivo, human
Conditions: for Adverse events of special interest, Events / Adverse events of special interest, Subjects, number (%) / Local skin reactions around the treated knees, Events / Local skin reactions around the treated knees, Subjects, number (%) / Requires hospitalization, Events / Requires hospitalization, Subjects, number (%) / Results in death, number (%) / Serious treatment-emergent adverse events, Events / Serious treatment-emergent adverse events, Subjects, number (%) / Severe treatment-emergent adverse events, Events / Severe treatment-emergent adverse events, Subjects, number (%) / To be discontinued from the study due to adverse events, Events / To be discontinued from the study due to adverse events, Subjects, number (%) / To be discontinued from the treatment temporarily due to adverse events, Events / To be discontinued from the treatment temporarily due to adverse events, Subjects, number (%) / Treatment-emergent adverse events, Events / Treatment-emergent adverse events, Subjects, number (%): All Causalities
From the text: Safety assessments will be performed at each visit and will include assessment of AEs, vital signs (blood pressure, pulse rate, and oral temperature), clinical laboratories, physical examination, skin irritation, and electrocardiograms (ECGs) as indicated in the study flow chart, Table 47.
Safety assessments will include AEs, vital signs (blood pressures, pulse rate, and oral temperature), clinical laboratories, physical examination, skin irritation, and ECGs at various time points during the study as indicated in the study flow chart.
Adverse events of interest include: local skin reactions around the treated knee(s), upper stomach pain, GI bleeding, serious cardiovascular side effects (e.g., thrombotic events, myocardial infarction, or stroke), jaundice, elevated liver function tests, and nausea.
Safety analyses will be conducted on the SAS. Safety parameters will be listed and summarized using standard descriptive statistics, as appropriate. No formal statistical analyses are planned.

[1] = moderate adverse events, 4.375 mg/knee, BID, N = 71

**Q.** With `CCN(CC)CCOC(=O)C(C)c1ccc(CC(C)C)cc1` (centres unmarked) [2-(diethylamino)ethyl 2-(4-isobutylphenyl)propionate] as the molecule, how does the “Toothache: percentage of subjects with adverse events” value (17.5 mg/knee, BID, N = 70) read?
**A.** 1.4%

**Q.** What about the “Toothache: subjects with adverse events” value (17.5 mg/knee, BID, N = 70) of the same molecule?
**A.** 1

**Q.** And the “Upper Respiratory Tract Infection: number of adverse events” value (17.5 mg/knee, BID, N = 70)?
**A.** 5

**Q.** And the “Upper Respiratory Tract Infection: subjects with adverse events, number (percentage)” value (17.5 mg/knee, BID, N = 70)?
**A.** 5(7.1%)

**Q.** What about the “Urinary Tract Infection: number of adverse events” value (17.5 mg/knee, BID, N = 70) of the same molecule?
**A.** 9

**Q.** And the “Urinary Tract Infection: subjects with adverse events, number (percentage)” value (17.5 mg/knee, BID, N = 70)?
**A.** 8(11.4%)

**Q.** What about the “Adverse events of special interest, Events” value (4.375 mg/knee BID, n = 71) of the same molecule?
**A.** 16

**Q.** What about the “Adverse events of special interest, Subjects, number (%)” value (4.375 mg/knee BID, n = 71) of the same molecule?
**A.** 11 (15.5%)

**Q.** What about the “Local skin reactions around the treated knees, Events” value (4.375 mg/knee BID, n = 71) of the same molecule?
**A.** 1

**Q.** What about the “Local skin reactions around the treated knees, Subjects, number (%)” value (4.375 mg/knee BID, n = 71) of the same molecule?
**A.** 1 (1.4%)

**Q.** And the “Requires hospitalization, Events” value (4.375 mg/knee BID, n = 71)?
**A.** 0

**Q.** What about the “Requires hospitalization, Subjects, number (%)” value (from here on “Requires hospitalization … (%)”) (4.375 mg/knee BID, n = 71) of the same molecule?
**A.** 0

**Q.** What about the “Results in death, number (%)” value (4.375 mg/knee BID, n = 71) of the same molecule?
**A.** 1 (1.4%)

**Q.** And the “Serious treatment-emergent adverse events, Events” value (4.375 mg/knee BID, n = 71)?
**A.** 1

**Q.** What about the “Serious treatment-emergent adverse events, Subjects, number (%)” value (4.375 mg/knee BID, n = 71) of the same molecule?
**A.** 1 (1.4)

**Q.** What about the “Severe treatment-emergent adverse events, Events” value (4.375 mg/knee BID, n = 71) of the same molecule?
**A.** 1

**Q.** And the “Severe treatment-emergent adverse events, Subjects, number (%)” value (4.375 mg/knee BID, n = 71)?
**A.** 1 (1.4%)

**Q.** And the “To be discontinued from the study due to adverse events, Events” value (4.375 mg/knee BID, n = 71)?
**A.** 1

**Q.** And the “To be discontinued from the study due to adverse events, Subjects, number (%)” value (shortened to “To be discontinued from the study due … (%)”) (4.375 mg/knee BID, n = 71)?
**A.** 1 (1.4%)

**Q.** And the “To be discontinued from the treatment temporarily due to adverse events, Events” value (4.375 mg/knee BID, n = 71)?
**A.** 1

**Q.** What about the “To be discontinued from the treatment temporarily due to adverse events, Subjects, number (%)” value (4.375 mg/knee BID, n = 71) of the same molecule?
**A.** 1 (1.4%)

**Q.** What about the “Treatment-emergent adverse events, Events” value (4.375 mg/knee BID, n = 71) of the same molecule?
**A.** 68

**Q.** What about the “Treatment-emergent adverse events, Subjects, number (%)” value (4.375 mg/knee BID, n = 71) of the same molecule?
**A.** 41 (57.7%)

**Q.** And the “Adverse events of special interest, Events” value (8.75 mg/knee BID, n = 70)?
**A.** 12

**Q.** And the “Adverse events of special interest, Subjects, number (%)” value (8.75 mg/knee BID, n = 70)?
**A.** 10 (14.3)

**Q.** What about the “Local skin reactions around the treated knees, Events” value (8.75 mg/knee BID, n = 70) of the same molecule?
**A.** 1

**Q.** And the “Local skin reactions around the treated knees, Subjects, number (%)” value (8.75 mg/knee BID, n = 70)?
**A.** 1 (1.4%)

**Q.** What about the “Requires hospitalization, Events” value (8.75 mg/knee BID, n = 70) of the same molecule?
**A.** 1

**Q.** And the “Requires hospitalization … (%)” value (8.75 mg/knee BID, n = 70)?
**A.** 1 (1.4%)

**Q.** And the “Results in death, number (%)” value (8.75 mg/knee BID, n = 70)?
**A.** 0

**Q.** What about the “Serious treatment-emergent adverse events, Events” value (8.75 mg/knee BID, n = 70) of the same molecule?
**A.** 1

**Q.** What about the “Serious treatment-emergent adverse events, Subjects, number (%)” value (8.75 mg/knee BID, n = 70) of the same molecule?
**A.** 1 (1.4)

**Q.** And the “Severe treatment-emergent adverse events, Events” value (8.75 mg/knee BID, n = 70)?
**A.** 1

**Q.** And the “Severe treatment-emergent adverse events, Subjects, number (%)” value (8.75 mg/knee BID, n = 70)?
**A.** 1 (1.4%)

**Q.** And the “To be discontinued from the study due to adverse events, Events” value (8.75 mg/knee BID, n = 70)?
**A.** 0

**Q.** What about the “To be discontinued from the study due … (%)” value (8.75 mg/knee BID, n = 70) of the same molecule?
**A.** 0

**Q.** What about the “To be discontinued from the treatment temporarily due to adverse events, Events” value (8.75 mg/knee BID, n = 70) of the same molecule?
**A.** 1

**Q.** And the “To be discontinued from the treatment temporarily due to adverse events, Subjects, number (%)” value (8.75 mg/knee BID, n = 70)?
**A.** 1 (1.4%)

**Q.** And the “Treatment-emergent adverse events, Events” value (8.75 mg/knee BID, n = 70)?
**A.** 71

**Q.** And the “Treatment-emergent adverse events, Subjects, number (%)” value (8.75 mg/knee BID, n = 70)?
**A.** 39 (55.7%)

**Q.** And the “Adverse events of special interest, Events” value (17.5 mg/knee BID, n = 70)?
**A.** 14

**Q.** What about the “Adverse events of special interest, Subjects, number (%)” value (17.5 mg/knee BID, n = 70) of the same molecule?
**A.** 11 (15.7)

**Q.** What about the “Local skin reactions around the treated knees, Events” value (17.5 mg/knee BID, n = 70) of the same molecule?
**A.** 5

**Q.** And the “Local skin reactions around the treated knees, Subjects, number (%)” value (17.5 mg/knee BID, n = 70)?
**A.** 4 (5.7%)

**Q.** And the “Requires hospitalization, Events” value (17.5 mg/knee BID, n = 70)?
**A.** 0

**Q.** And the “Requires hospitalization … (%)” value (17.5 mg/knee BID, n = 70)?
**A.** 0

**Q.** What about the “Results in death, number (%)” value (17.5 mg/knee BID, n = 70) of the same molecule?
**A.** 0

**Q.** What about the “Serious treatment-emergent adverse events, Events” value (17.5 mg/knee BID, n = 70) of the same molecule?
**A.** 0

**Q.** What about the “Serious treatment-emergent adverse events, Subjects, number (%)” value (17.5 mg/knee BID, n = 70) of the same molecule?
**A.** 0

**Q.** And the “Severe treatment-emergent adverse events, Events” value (17.5 mg/knee BID, n = 70)?
**A.** 0

**Q.** What about the “Severe treatment-emergent adverse events, Subjects, number (%)” value (17.5 mg/knee BID, n = 70) of the same molecule?
**A.** 0

**Q.** And the “To be discontinued from the study due to adverse events, Events” value (17.5 mg/knee BID, n = 70)?
**A.** 1

**Q.** And the “To be discontinued from the study due … (%)” value (17.5 mg/knee BID, n = 70)?
**A.** 1 (1.4%)

**Q.** What about the “To be discontinued from the treatment temporarily due to adverse events, Events” value (17.5 mg/knee BID, n = 70) of the same molecule?
**A.** 0

**Q.** And the “To be discontinued from the treatment temporarily due to adverse events, Subjects, number (%)” value (17.5 mg/knee BID, n = 70)?
**A.** 0

**Q.** What about the “Treatment-emergent adverse events, Events” value (17.5 mg/knee BID, n = 70) of the same molecule?
**A.** 52

**Q.** And the “Treatment-emergent adverse events, Subjects, number (%)” value (17.5 mg/knee BID, n = 70)?
**A.** 30 (42.9%)

**Q.** What about the safety and tolerability (all three doses (4.375, 8.75, 17.5 mg/knee BID)) of the same molecule?
**A.** appeared to be safe and were generally well tolerated

**Q.** And the “skin irritation incidences, total (all mild)” value (in vivo)?
**A.** 9

**Q.** What about the “overall safety vs oral ibuprofen” value (in vivo, po) of the same molecule?
**A.** safer than oral ibuprofen

**Q.** What about the “Gastroenteritis: number of adverse events” value [1] of the same molecule?
**A.** 1

**Q.** What about the “Gastroenteritis: percentage of subjects with adverse events” value [1] of the same molecule?
**A.** 1.4%
